Measurements: ChEMBL document CHEMBL1697781, “Assessment of the health effects of chemicals in humans: II. Construction of an adverse effects database for QSAR modeling” (Curr Drug Discov Technol, 2004)

What was measured:
Conditions in all cases: human; call rule not given here
[1] = tested on: Hepatotoxicity; test: FDA HLAED, liver enzyme composite activity
[2] = tested on: Hepatotoxicity; test: FDA HLAED, alkaline phosphatase increase
[3] = tested on: Hepatotoxicity; test: FDA HLAED, serum glutamic oxaloacetic transaminase (SGOT) increase
[4] = tested on: Hepatotoxicity; test: FDA HLAED, serum glutamic pyruvic transaminase (SGPT) increase
[5] = tested on: Hepatotoxicity; test: FDA HLAED, lactate dehydrogenase (LDH) increase
[6] = tested on: Hepatotoxicity; test: FDA HLAED, gamma-glutamyl transferase (GGT) increase
Throughout, for GGT Increase - Index Value: reference of the scale not given here.
Throughout, for LDH Increase - Index Value: reference of the scale not given here.

| Structure (SMILES) | Composite Activity - Active [1] | Composite Activity - Marginal [1] | Composite Activity - Score [1] | Alkaline Phosphatase Increase - Activity Score [2] | Alkaline Phosphatase Increase - Index Value [2] | Alkaline Phosphatase Increase - Number of Reports [2] | SGOT Increase - Activity Score [3] | SGOT Increase - Index Value [3] | SGOT Increase - Number of Reports [3] | SGPT Increase - Activity Score [4] | SGPT Increase - Index Value [4] | SGPT Increase - Number of Reports [4] | LDH Increase - Activity Score [5] | LDH Increase - Index Value [5] | LDH Increase - Number of Reports [5] | GGT Increase - Activity Score [6] | GGT Increase - Index Value [6] | GGT Increase - Number of Reports [6] | other results |
| --- | --- | --- | --- | --- | --- | --- | --- | --- | --- | --- | --- | --- | --- | --- | --- | --- | --- | --- | --- |
| CN(C)CC/C=C1/c2ccccc2COc2ccc(CC(=O)O)cc21 [OLOPATADINE] | 0 | 0 | Inactive | Inactive | 0 | < 4 | Inactive | 0 | < 4 | Inactive | 0 | < 4 | Inactive | 0 | < 4 | Inactive | 0 | < 4 |  |
| O=C(O)c1cc(/N=N/c2ccc(O)c(C(=O)O)c2)ccc1O [OLSALAZINE] | 0 | 0 | Inactive | Inactive | 0.7 | < 4 | Inactive | 2.2 | < 4 | Inactive | 1.5 | < 4 | Inactive | 0.7 | < 4 | Inactive | 0 | < 4 |  |
| COc1ccc2[nH]c([S+]([O-])Cc3ncc(C)c(OC)c3C)nc2c1 (configuration not stated) [OMEPRAZOLE] | 0 | 0 | Inactive | Inactive | 1.8 | >= 4 | Inactive | 1.2 | >= 4 | Inactive | 0.9 | >= 4 | Inactive | 0.5 | >= 4 | Inactive | 0.8 | >= 4 |  |
| Cc1nccn1CC1CCc2c(c3ccccc3n2C)C1=O (configuration not stated) [ONDANSETRON] | 0 | 0 | Inactive | Inactive | 0.5 | >= 4 | Inactive | 1.1 | >= 4 | Inactive | 1.3 | >= 4 | Inactive | 0.9 | >= 4 | Inactive | 0 | < 4 |  |
| O=C(O)CCc1nc(-c2ccccc2)c(-c2ccccc2)o1 [OXAPROZIN] | 0 | 0 | Inactive | Inactive | 0.2 | < 4 | Inactive | 0.9 | >= 4 | Inactive | 0.8 | >= 4 | Inactive | 0.4 | >= 4 | Inactive | 0.4 | < 4 |  |
| Clc1ccc(CO/N=C(\Cn2ccnc2)c2ccc(Cl)cc2Cl)c(Cl)c1 [OXICONAZOLE] |  |  |  | Inactive | 0 | < 4 | Inactive | 0 | < 4 | Inactive | 0 | < 4 | Inactive | 0 | < 4 | Inactive | 0 | < 4 | Composite Activity - Active ([1]; Liver): 0; Composite Activity - Marginal ([1]; Liver): 0; Composite Activity - Score ([1]; Liver): Inactive |
| C[N+](C)(C)CCO.Cn1c(=O)c2[n-]cnc2n(C)c1=O [OXTRIPHYLLINE] | 0 | 0 | Inactive | Inactive | 0 | < 4 | Inactive | 0 | < 4 | Inactive | 0 | < 4 | Inactive | 0 | < 4 | Inactive | 0 | < 4 |  |
| CC(=O)O[C@H]1C(=O)[C@@]2(C)[C@H]([C@H](OC(=O)c3ccccc3)[C@]3(O)C[C@H](OC(=O)[C@H](O)[C@@H](NC(=O)c4ccccc4)c4ccccc4)C(C)=C1C3(C)C)[C@]1(OC(C)=O)CO[C@@H]1C[C@@H]2O [PACLITAXEL] |  |  |  | Marginally Active | 3.7 | >= 4 | Inactive | 2.5 | >= 4 | Inactive | 0.8 | < 4 | Inactive | 2.2 | >= 4 | Inactive | 1.2 | >= 4 | Composite Activity - Active ([1]; Liver): 0; Composite Activity - Marginal ([1]; Liver): 1; Composite Activity - Score ([1]; Liver): Inactive |
| NCCC(O)(P(=O)(O)O)P(=O)(O)O [PAMIDRONIC ACID] | 2 | 0 | Active | Active | 16.6 | >= 4 | Inactive | 4.1 | < 4 | Inactive | 4.1 | < 4 | Inactive | 4.1 | < 4 | Active | 12.4 | < 4 |  |
